Measurements from PubChem BioAssay (NCI).
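Each compound was tested at five concentrations against cells in 96-well plates for 48 hours. GI50 marks 50% less growth. TGI is the concentration that stops growth completely.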

Experiments:
Assay in all cases: NCI-60 cell line screen, 48 h
[1] = tested on: CAKI-1 renal
[2] = tested on: DU-145 prostate
[3] = tested on: RPMI-8226 leukemia
[4] = tested on: ACHN renal
[5] = tested on: NCI-H23 lung
[6] = tested on: HL-60(TB) leukemia
[7] = tested on: UACC-62 melanoma
[8] = tested on: M14 melanoma
[9] = tested on: HCC-2998 colon
[10] = tested on: LOX IMVI melanoma
[11] = tested on: SNB-19 CNS
[12] = tested on: A549 NSCLC
[13] = tested on: SK-MEL-28 melanoma
[14] = tested on: MDA-MB-435
[15] = tested on: CCRF-CEM leukemia
[16] = tested on: HOP-92 NSCLC
[17] = tested on: SF-268 CNS
[18] = tested on: HS 578T breast
[19] = tested on: UACC-257 melanoma
[20] = tested on: OVCAR-8 ovarian
[21] = tested on: SW-620 colon
[22] = tested on: NCI/ADR-RES ovarian
[23] = tested on: SN12C renal
[24] = tested on: KM12 colon
[25] = tested on: RXF 393 renal
[26] = tested on: A498 renal
[27] = tested on: NCI-H226 lung
[28] = tested on: SF-295 CNS
[29] = tested on: U251 CNS
[30] = tested on: MDA-MB-231 breast
[31] = tested on: HOP-62 NSCLC
[32] = tested on: MCF7 breast
[33] = tested on: SK-MEL-5 melanoma
[34] = tested on: OVCAR-5 ovarian
[35] = tested on: IGROV1 ovarian
[36] = tested on: SK-OV-3 ovarian
[37] = tested on: SF-539 CNS
[38] = tested on: EKVX NSCLC
[39] = tested on: OVCAR-4 ovarian
[40] = tested on: BT-549 breast
[41] = tested on: HCT-116 colon
[42] = tested on: 786-0 renal
[43] = tested on: HT29 colon
[44] = tested on: HCT-15 colon
[45] = tested on: UO-31 renal
[46] = tested on: NCI-H522 lung
[47] = tested on: SK-MEL-2 melanoma
[48] = tested on: MOLT-4 leukemia
[49] = tested on: K-562 leukemia
[50] = tested on: TK-10 renal
[51] = tested on: NCI-H460 lung
[52] = tested on: SNB-75 CNS
[53] = tested on: PC-3 prostate
[54] = tested on: MALME-3M melanoma
[55] = tested on: OVCAR-3 ovarian

COc1nn(C)cc1Nc1nccc(-c2c[nH]c3c(NC(=O)[C@@H](C)N4CCN(C)CC4)cccc23)n1
GI50 [1]: 29.2 µM
TGI [1]: > 100 µM
GI50 [2]: 62.8 µM
TGI [2]: > 100 µM
GI50 [3]: 49.5 µM
TGI [3]: > 100 µM
GI50 [4]: 37.6 µM
TGI [4]: > 100 µM
GI50 [5]: 40.5 µM
TGI [5]: > 100 µM
GI50 [6]: 28.9 µM
TGI [6]: > 100 µM
GI50 [7]: 40.6 µM
TGI [7]: > 100 µM
GI50 [8]: 18.9 µM
TGI [8]: 41.2 µM
GI50 [9]: > 100 µM
TGI [9]: > 100 µM
GI50 [10]: 17.1 µM
TGI [10]: 36.5 µM
GI50 [11]: 75.6 µM
TGI [11]: > 100 µM
GI50 [12]: 44.3 µM
TGI [12]: > 100 µM
GI50 [13]: 53.9 µM
TGI [13]: > 100 µM
GI50 [14]: 24.3 µM
TGI [14]: 82.3 µM
GI50 [15]: 40.4 µM
TGI [15]: > 100 µM
GI50 [16]: 41.7 µM
TGI [16]: > 100 µM
GI50 [17]: 36 µM
TGI [17]: > 100 µM
GI50 [18]: 27 µM
TGI [18]: > 100 µM
GI50 [19]: 27.7 µM
TGI [19]: 78.7 µM
GI50 [20]: > 100 µM
TGI [20]: > 100 µM
GI50 [21]: 40.8 µM
TGI [21]: > 100 µM
GI50 [22]: 61.9 µM
TGI [22]: > 100 µM
GI50 [23]: 38.3 µM
TGI [23]: > 100 µM
GI50 [24]: 37.6 µM
TGI [24]: > 100 µM
GI50 [25]: 16.6 µM
TGI [25]: 42.2 µM
GI50 [26]: 15.9 µM
TGI [26]: 45.2 µM
GI50 [27]: 14.3 µM
TGI [27]: > 100 µM
GI50 [28]: 28 µM
TGI [28]: 99.4 µM
GI50 [29]: 43.7 µM
TGI [29]: > 100 µM
GI50 [30]: 34.9 µM
TGI [30]: > 100 µM
GI50 [31]: 23.1 µM
TGI [31]: > 100 µM
GI50 [32]: 31.7 µM
TGI [32]: > 100 µM
GI50 [33]: 18.5 µM
TGI [33]: 36.5 µM
GI50 [34]: 42.5 µM
TGI [34]: > 100 µM
GI50 [35]: 18.9 µM
TGI [35]: > 100 µM
GI50 [36]: 44.2 µM
TGI [36]: > 100 µM
GI50 [37]: 18 µM
TGI [37]: 38.4 µM
GI50 [38]: 47 µM
TGI [38]: > 100 µM
GI50 [39]: 47.9 µM
TGI [39]: > 100 µM
GI50 [40]: 22.5 µM
TGI [40]: 72.9 µM
GI50 [41]: 34.3 µM
TGI [41]: > 100 µM
GI50 [42]: 28.8 µM
TGI [42]: > 100 µM
GI50 [43]: 29.4 µM
TGI [43]: > 100 µM
GI50 [44]: 37.6 µM
TGI [44]: > 100 µM
GI50 [45]: 20.7 µM
TGI [45]: > 100 µM
GI50 [46]: 43.2 µM
TGI [46]: > 100 µM
GI50 [47]: 25 µM
TGI [47]: 74.5 µM
GI50 [48]: 37.8 µM
TGI [48]: > 100 µM
GI50 [49]: 29.2 µM
TGI [49]: > 100 µM
GI50 [50]: 44.1 µM
TGI [50]: > 100 µM
GI50 [51]: 40.7 µM
TGI [51]: > 100 µM
GI50 [52]: 16.2 µM
TGI [52]: 40.9 µM
GI50 [53]: 51.2 µM
TGI [53]: > 100 µM
GI50 [54]: 20.1 µM
TGI [54]: 73.1 µM
GI50 [55]: 56.1 µM
TGI [55]: > 100 µM
